Results reported in ChEMBL document CHEMBL1125108 (J Med Chem, 1990).

Columns and labels:
Assay type in all cases: tissue-based
D(2) dopamine receptor = D(2) dopamine receptor (Rattus norvegicus, UniProt P61169); test: Binding affinity for Dopamine receptor D2 using [3H]spiperone in rat brain
D(1A) dopamine receptor = D(1A) dopamine receptor (Rattus norvegicus, UniProt P18901); test: Binding affinity against Dopamine receptor D1 using […] in rat brain
[1] = molecular target: Muscarinic acetylcholine receptor; test: Binding affinity was determined against Muscarinic acetylcholine receptor using [3H]QNB as radioligand in rat brain.

Chain of D(2) dopamine receptor (P61169 whole entry): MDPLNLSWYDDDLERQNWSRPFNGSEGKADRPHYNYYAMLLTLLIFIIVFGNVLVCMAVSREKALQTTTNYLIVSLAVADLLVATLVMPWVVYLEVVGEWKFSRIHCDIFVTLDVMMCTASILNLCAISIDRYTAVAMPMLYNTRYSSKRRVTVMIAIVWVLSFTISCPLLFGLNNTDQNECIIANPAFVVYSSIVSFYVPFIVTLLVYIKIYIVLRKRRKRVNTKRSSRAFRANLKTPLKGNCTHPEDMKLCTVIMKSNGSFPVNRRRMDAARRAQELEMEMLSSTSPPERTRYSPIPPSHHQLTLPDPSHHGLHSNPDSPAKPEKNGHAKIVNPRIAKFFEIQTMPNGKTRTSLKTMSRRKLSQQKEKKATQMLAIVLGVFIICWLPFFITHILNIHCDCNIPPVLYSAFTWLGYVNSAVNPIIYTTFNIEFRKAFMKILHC
Chain of D(1A) dopamine receptor (P18901 whole entry): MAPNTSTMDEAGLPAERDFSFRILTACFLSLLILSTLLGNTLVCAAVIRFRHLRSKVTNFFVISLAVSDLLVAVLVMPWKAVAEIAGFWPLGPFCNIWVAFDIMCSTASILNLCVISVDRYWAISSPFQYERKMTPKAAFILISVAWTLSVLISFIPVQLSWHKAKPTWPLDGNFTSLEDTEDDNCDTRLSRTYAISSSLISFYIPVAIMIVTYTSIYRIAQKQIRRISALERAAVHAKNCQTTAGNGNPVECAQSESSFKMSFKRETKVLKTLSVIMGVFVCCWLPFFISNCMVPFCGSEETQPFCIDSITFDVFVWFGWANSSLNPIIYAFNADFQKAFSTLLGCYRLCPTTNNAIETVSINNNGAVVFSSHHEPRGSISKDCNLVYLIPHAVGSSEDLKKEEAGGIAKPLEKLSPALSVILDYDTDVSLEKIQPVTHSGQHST

| Structure (SMILES) | IC50 (D(2) dopamine receptor) | IC50 (D(1A) dopamine receptor) | IC50 [1] |
| --- | --- | --- | --- |
| CC(C)=C1c2ccccc2C=C(N2CCN(C)CC2)c2cc(Cl)ccc21 | > 10000 nM | 133 nM | 297 nM |
| CN1CCN(C2=Nc3ccccc3Nc3ccccc32)CC1 | > 10000 nM | – | – |
| CC(C)=C1c2ccc(Cl)cc2C=C(N2CCN(C)CC2)c2ccccc21 | 5000 nM | 443 nM | 1750 nM |

Compounds with a lower IC50 (D(2) dopamine receptor), results first:

| IC50 (D(2) dopamine receptor) | IC50 (D(1A) dopamine receptor) | IC50 [1] | Structure (SMILES) |
| --- | --- | --- | --- |
| 4750 nM | 540 nM | 415 nM | CC(C)=C1c2ccccc2C=C(N2CCN(C)CC2)c2ccccc21 |
| 305 nM | 21 nM | 150 nM | C=C1c2ccccc2C=C(N2CCN(C)CC2)c2ccccc21 |
| 300 nM | 51 nM | 248 nM | C=C1c2ccc(Cl)cc2C=C(N2CCN(C)CC2)c2ccccc21 |
| 27 nM | 8 nM | 330 nM | C=C1c2ccccc2C=C(N2CCN(C)CC2)c2cc(Cl)ccc21 |
